Test results reported in ChEMBL document CHEMBL4825732, “Discovery of the Selective Protein Kinase C-θ Kinase Inhibitor, CC-90005” (J Med Chem, 2021).

Columns and labels:
[1] = Volume of distribution at steady state in iv dosed rat; format: ADME, organism-based; conditions: in vivo, read-out: Vdss
[2] = Apparent permeability across apical to basolateral side in human Caco2 cells; format: ADME, cell-based; conditions: Caco-2
[3] = Oral bioavailability in mouse at 10 mg/kg; format: ADME, organism-based; conditions: in vivo
[4] = Oral bioavailability in rat at 10 mg/kg; format: ADME, organism-based; conditions: in vivo
[5] = Oral bioavailability in dog at 10 mg/kg; format: ADME, organism-based, Canis lupus familiaris; conditions: in vivo

Vd [1] [L/kg]	Papp A→B [2] [×10⁻⁶ cm/s]	bioavailability [3] [%]	bioavailability [4] [%]	bioavailability [5] [%]	SMILES
27.7					CC1(C)CC(Nc2cc(NCc3cnccc3C(F)(F)F)ncc2C#N)CC(C)(C)N1
	36				CC(C)(F)c1ncncc1CNc1ncc(C#N)c(N[C@@H]2C[C@H](O)C2(C)C)n1
	27	17	66	46	CC(F)(F)COc1ncncc1CNc1ncc(C#N)c(N[C@@H]2CC[C@H](O)C(C)(C)C2)n1
	11				CC1(C)[C@@H](O)C[C@H]1Nc1nc(NCc2cncnc2OCC(F)F)ncc1C#N
